The results in this text go back to patent US11795147B2, “Modulators of complex I” (Boehringer Ingelheim International GmbH, priority 2019, dated 2023).

The structures appear in SMILES notation.

The target of the experiment is Complex I. Nature of the experiment: Assay A: Determination of Complex I mediated ROS-inhibition (CI). Conditions: read-out: CI IC50; ROS generation by Complex I purified from bovine heart, Amplex Red/horse radish peroxidase readout, 8 point concentration-response. The experiment is classed as biochemical.
In general, IC50 refers to the midpoint of a concentration-inhibition curve. `CC(C)Nc1ccc2c(c1)/C(=C1\CN(C3CCOCC3)CCN1)C(=O)N2C(C)C` [Compound 134]: the IC50 is 0.062 µM.
Next, `CC(Nc1ccc2c(c1)/C(=C1\COCCN1)C(=O)N2C1CCOCC1)C1CCC1` (centres unmarked) [Compound 148]: 0.039 µM.
On to `CC(C)N1CCC2(CC1)CN/C(=C1\C(=O)N(C(C)C)c3ccc(N4CCCC4)cc31)CO2` [Compound 91], for which the IC50 stood at 0.242 µM.
As for `CN1CCC/C1=C1/C(=O)N(C2CCOCC2)c2ccc(NC3CCC3)cc21` [Compound 9], the IC50 worked out at 0.398 µM.
Next, `CN(C)c1ccc2c(c1)/C(=C1\COCCN1)C(=O)N2C` [Compound 2]: 0.08 µM; `COCC(C)N1C(=O)/C(=C2/COCCN2)c2cc(NC(C)C)ccc21` (centres unmarked) [Compound 28]: 0.069 µM.
Next, `CC(C)Nc1ccc2c(c1)/C(=C1\CN(C3COC3)CCN1)C(=O)N2C1CCOCC1` [Compound 5]: 0.081 µM; `CC1CCCC1Nc1ccc2c(c1)/C(=C1\COCCN1)C(=O)N2C1CCOCC1` (centres unmarked) [Compound 102]: 0.109 µM; `CC(C)Nc1ccc2c(c1)/C(=C1\CN(C3COC3)CCN1)C(=O)N2C(C)C` [Compound 114]: 0.058 µM.
Next, `CN(C)c1ccc2c(c1)/C(=C1\CCCN1)C(=O)N2C1CCOCC1` [Compound 42]: 0.042 µM; `O=C1/C(=C2/COCCN2)c2cc(N3CCCC3)ccc2N1C1CCOCC1` [Compound 117]: 0.738 µM; `CC(C)N1C(=O)C(=C2CCOCC2)c2cc(NC3CCCC3)ccc21` [Compound 116]: 0.539 µM.
As for `CC(C)Nc1ccc2c(c1)/C(=C1\COCCCN1)C(=O)N2C1CCOCC1` [Compound 167], the 50% inhibitory concentration (IC50) worked out at 0.065 µM.
Next, `CC(=O)N1CCN/C(=C2\C(=O)N(C3CCOCC3)c3ccc(N4CCCC4)cc32)CC1` [Compound 12]: 0.194 µM.
Next, `O=C1/C(=C2/COCCN2)c2cc(NC3CCC3)ccc2N1C1CCOCC1` [Compound 132]: 0.055 µM; `CC(C)Nc1ccc2c(c1)/C(=C1\COCC(C)N1)C(=O)N2C1CCOCC1` (centres unmarked) [Compound 33]: 0.032 µM; `CC(C)N1C(=O)/C(=C2/COCCN2)c2cc(NCC3CCOCC3)ccc21` [Compound 75]: 0.072 µM.
On to `CN1CCC/C1=C1/C(=O)N(C2CCOCC2)c2ccc(NC3CCOC3)cc21` (centres unmarked) [Compound 49], for which the IC50 is 0.282 µM.
Take `CC1OCCC1Nc1ccc2c(c1)/C(=C1\COCCN1)C(=O)N2C1CCOCC1` (centres unmarked) [Compound 174]: the IC50 is 0.039 µM.
For the molecule `CC(C)N1C(=O)/C(=C2/CCOCCN2)c2cc(NC3CCC3)ccc21` [Compound 22], the IC50 amounted to 0.087 µM.
On to `Nc1ccc2c(c1)/C(=C1\COCCN1)C(=O)N2C1CCOCC1` [Compound 35], for which the IC50 was 0.083 µM.
To `CC(Nc1ccc2c(c1)/C(=C1\COCCN1)C(=O)N2C1CCOCC1)c1ccccn1` (centres unmarked) [Compound 77] belongs 0.022 µM; to `CC(=O)N1CC[C@H](N2C(=O)/C(=C3/COCCN3)c3cc(NC(C)C)ccc32)C1` [Compound 170], 0.023 µM; to `CC(C)Nc1ccc2c(c1)/C(=C1\COCCN1)C(=O)N2[C@H]1CCN(C2COC2)C1` [Compound 69], 0.055 µM.
To `COCC(C)Nc1ccc2c(c1)/C(=C1\COCCN1)C(=O)N2C1CCOC1` (centres unmarked) [Compound 52] belongs 0.061 µM.
To `CC(C)N1C(=O)/C(=C2/CCCCN2)c2cc(N3CCOCC3)ccc21` [Compound 158] belongs 0.243 µM; to `O=C1/C(=C2/CCOCCN2)c2cc(NC3CCCC3)ccc2N1C1CCOCC1` [Compound 13], 0.084 µM; to `CC(C)N1C(=O)C(=C2CCOCC2)c2cc(N)ccc21` [Compound 157], 0.691 µM.
Consider `CN(C)c1ccc2c(c1)/C(=C1\CCCCN1)C(=O)N2C` [Compound 62], for which the IC50 is 0.081 µM.
Turning to `CC(C)N1C(=O)/C(=C2/COCCN2)c2cc(N3CCOCC3)ccc21` [Compound 166], the IC50 is 0.075 µM.
Consider `O=C1/C(=C2/COCCN2)c2cc(NC3COC3)ccc2N1C1CCOCC1` [Compound 175], for which the IC50 amounted to 0.097 µM.
Next, `CN1C(=O)/C(=C2/CCN(C(=O)OCc3ccccc3)CCN2)c2cc(N3CCCC3)ccc21` [Compound 152]: 0.477 µM; `CC(C)N1C(=O)/C(=C2/COCCN2)c2cc(NC3CCC(F)(F)CC3)ccc21` [Compound 72]: 0.14 µM; `CN1C(=O)/C(=C2/CCN(C3CCOC3)CCN2)c2cc(N3CCCC3)ccc21` (centres unmarked) [Compound 155]: 0.264 µM.
To `O=C1/C(=C2/CCN(C3COC3)CCN2)c2cc(N3CCCC3)ccc2N1C1CCOCC1` [Compound 121] belongs 0.075 µM; to `CC(C)Nc1ccc2c(c1)/C(=C1\COCCN1)C(=O)N2C(C)(C)C` [Compound 90], 0.428 µM.
To `CC(C)N1CCC(Nc2ccc3c(c2)/C(=C2\COCCN2)C(=O)N3C(C)C)CC1` [Compound 96] belongs 0.063 µM; to `CC(C)Nc1ccc2c(c1)/C(=C1\COCCN1)C(=O)N2C1CCOCC1` [Compound 3], 0.077 µM.
Regarding `CC(C)N1CCC(Nc2ccc3c(c2)/C(=C2\COCCN2)C(=O)N3C2CCOCC2)CC1` [Compound 19], the IC50 came to 0.022 µM.
Next, `CC(C)N1C(=O)/C(=C2/COCCN2)c2cc(NCC3(C)COC3)ccc21` [Compound 127]: 0.082 µM; `O=C1/C(=C2/COCCN2)c2cc(NC3CCOCC3)ccc2N1C1CCOCC1` [Compound 18]: 0.011 µM.
Regarding `CC(Nc1ccc2c(c1)/C(=C1\COCCN1)C(=O)N2C(C)C)C1CC1` (centres unmarked) [Compound 97], the IC50 turned out to be 0.344 µM.
Next, `CC(C)Nc1ccc2c(c1)/C(=C1\CN(C(C)C)CCN1)C(=O)N2C(C)C` [Compound 88]: 0.068 µM.
Consider `O=C1/C(=C2/COCCCN2)c2cc(NC3CCOC3)ccc2N1C1CCOCC1` (centres unmarked) [Compound 141], for which the IC50 was 0.104 µM.
As to `O=C1/C(=C2/COCCN2)c2cc(NC3CCCC3)ccc2N1C1COCCOC1` [Compound 50], the IC50 worked out at 0.195 µM.
Next, `CN1C(=O)/C(=C2/CCN(C3COC3)CCN2)c2cc(N3CCCC3)ccc21` [Compound 45]: 0.259 µM.
In the case of `CN(C)c1ccc2c(c1)/C(=C1\CCCCCN1)C(=O)N2C` [Compound 105], the IC50 turned out to be 0.064 µM.
For the molecule `O=C1/C(=C2/COCCN2)c2cc(NCC3CCOCC3)ccc2N1C1CCOCC1` [Compound 81], the IC50 was 0.13 µM.
Next, `O=C1/C(=C2/CCOCCN2)c2cc(NC3CCC3)ccc2N1C1CCOCC1` [Compound 120]: 0.235 µM; `CC(C)Nc1ccc2c(c1)/C(=C1\COC3(CCN(C(C)C)CC3)CN1)C(=O)N2C(C)C` [Compound 138]: 0.206 µM.
As to `O=C1/C(=C2/CC3(CN2)COC3)c2cc(NC3CCOC3)ccc2N1C1CCOCC1` (centres unmarked) [Compound 70], the IC50 came out at 0.193 µM.
With `CN1C(=O)/C(=C2/COCCN2)c2cc(NC3CCC3)ccc21` [Compound 154], the half-inhibitory concentration (IC50) came out at 0.193 µM.
In the case of `CC(Nc1ccc2c(c1)/C(=C1\COCCN1)C(=O)N2C(C)C)C1CCC1` (centres unmarked) [Compound 37], the IC50 was 0.405 µM.
For `CC(C)N1C(=O)/C(=C2/CCOCCN2)c2cc(N3CCCC3)ccc21` [Compound 129], the IC50 amounted to 0.702 µM.
To `CC(Nc1ccc2c(c1)/C(=C1\COCCN1)C(=O)N2C(C)C)c1cncnc1` (centres unmarked) [Compound 126] belongs 0.085 µM.
In the case of `CC1CCN(c2ccc3c(c2)/C(=C2\COCCN2)C(=O)N3C2CCOCC2)CC1` [Compound 85], the IC50 came to 0.069 µM.
